Measured values: ChEMBL document CHEMBL3045954, “Synthesis and antidepressant activity of di substituted-5-aryl-1,2,4-triazoles” (Med Chem Res, 2012)
Calls of active or inactive are those of the source. No cut-off for these calls is given here.

Tests used:
Mus musculus [1] = test: Antidepressant activity in overnight fasted Mus musculus (mouse) assessed as decrease in immobility time at 100 mg/kg, ip administered 60 min prior to testing measured for 5 min by tail suspension test (reference value: 169.8 +/- 13 secs); format: functional; settings: route intraperitoneal
Mus musculus [2] = test: Antidepressant activity in overnight fasted Mus musculus (mouse) assessed as decrease in immobility time at 30 mg/kg, ip administered 60 min prior to testing measured for 5 min by tail suspension test (reference value: 169.8 +/- 13 secs); format: functional; settings: route intraperitoneal
Mus musculus [3] = test: Antidepressant activity in overnight fasted Mus musculus (mouse) assessed as decrease in immobility time at 10 mg/kg, ip administered 60 min prior to testing measured for 5 min by tail suspension test (reference value: 169.8 +/- 13 secs); format: functional; settings: route intraperitoneal
Mus musculus [4] = organism: Mus musculus; test: Behavioral effect in Mus musculus (mouse) assessed as effect on alertness after 3 hr; format: functional, organism-based
Mus musculus [5] = test: Acute toxicity in Mus musculus Swiss albino (mouse) up to 2000 mg/kg, ip measured for 1 month; format: organism-based; parameters: dose 2000 mg/kg, route intraperitoneal; settings: in vivo, 730.5 h

Molecule `Clc1ccc(-c2nc(SCCN(C3CCCCC3)C3CCCCC3)n[nH]2)cc1` has a Time (Mus musculus [1]) of 89.2 s, a Time (Mus musculus [2]) of 94.8 s and a Time (Mus musculus [3]) of 96.8 s. For the same molecule, the Activity (Mus musculus [4]) was “inactive” and the Activity (Mus musculus [5]) was “Non-toxic”.

With `CN(C)CCSc1n[nH]c(-c2ccc(O)cc2)n1` the Time (Mus musculus [1]) was 149 s, the Time (Mus musculus [2]) was 150.3 s and the Time (Mus musculus [3]) was 161.2 s. For the same molecule, the Activity (Mus musculus [4]) was “inactive” and the Activity (Mus musculus [5]) was “Non-toxic”.

With `Clc1ccc(-c2nc(SCCN(C3CCCCC3)C3CCCCC3)n[nH]2)c(Cl)c1` the Time (Mus musculus [1]) was 90.5 s, the Time (Mus musculus [2]) was 94.5 s and the Time (Mus musculus [3]) was 96.5 s. For the same molecule, the Activity (Mus musculus [4]) was “inactive” and the Activity (Mus musculus [5]) was “Non-toxic”.

`CCN(CC)CCSc1n[nH]c(-c2ccc(O)cc2)n1` showed a Time (Mus musculus [1]) of 151.8 s, a Time (Mus musculus [2]) of 167.3 s and a Time (Mus musculus [3]) of 171.8 s. For the same molecule, the Activity (Mus musculus [4]) was “inactive” and the Activity (Mus musculus [5]) was “Non-toxic”.

Work on `c1ccc(-c2nc(SCCN(C3CCCCC3)C3CCCCC3)n[nH]2)cc1` yielded a Time (Mus musculus [1]) of 101.7 s, a Time (Mus musculus [2]) of 109.7 s and a Time (Mus musculus [3]) of 117 s. For the same molecule, the Activity (Mus musculus [4]) was “inactive” and the Activity (Mus musculus [5]) was “Non-toxic”.

Work on `COc1ccc(-c2nc(SCCN(C)C)n[nH]2)cc1` yielded a Time (Mus musculus [1]) of 103.8 s, a Time (Mus musculus [2]) of 111 s and a Time (Mus musculus [3]) of 116.3 s. For the same molecule, the Activity (Mus musculus [4]) was “inactive” and the Activity (Mus musculus [5]) was “Non-toxic”.

With `CCN(CC)CCSc1n[nH]c(-c2ccc(C)cc2)n1` the Time (Mus musculus [1]) was 151.2 s, the Time (Mus musculus [2]) was 168.2 s and the Time (Mus musculus [3]) was 178.3 s. The Activity (Mus musculus [4]) was “inactive” and the Activity (Mus musculus [5]) was “Non-toxic”.

`Cc1ccc(-c2nc(SCCN(C3CCCCC3)C3CCCCC3)n[nH]2)cc1` was tested, and the Time (Mus musculus [1]) was 150 s, the Time (Mus musculus [2]) was 151.3 s and the Time (Mus musculus [3]) was 165 s. For the same molecule, the Activity (Mus musculus [4]) was “inactive” and the Activity (Mus musculus [5]) was “Non-toxic”.

In the case of `CN(C)CCSc1n[nH]c(-c2ccccc2)n1`, the Time (Mus musculus [1]) is reported as 102 s, the Time (Mus musculus [2]) is reported as 110.3 s and the Time (Mus musculus [3]) is reported as 117.2 s. For the same molecule, the Activity (Mus musculus [4]) was “inactive” and the Activity (Mus musculus [5]) was “Non-toxic”.

In the case of `CCN(CC)CCSc1n[nH]c(-c2ccc(OC)cc2)n1`, the Time (Mus musculus [1]) is reported as 103.8 s, the Time (Mus musculus [2]) is reported as 118.5 s and the Time (Mus musculus [3]) is reported as 139 s. The Activity (Mus musculus [4]) was “inactive” and the Activity (Mus musculus [5]) was “Non-toxic”.

Molecule `CCN(CC)CCSc1n[nH]c(-c2ccc(Cl)cc2)n1` has a Time (Mus musculus [1]) of 103.8 s, a Time (Mus musculus [2]) of 115 s and a Time (Mus musculus [3]) of 129.7 s. For the same molecule, the Activity (Mus musculus [4]) was “inactive” and the Activity (Mus musculus [5]) was “Non-toxic”.

In the case of `CN(C)CCSc1n[nH]c(-c2ccc(Cl)cc2Cl)n1`, the Time (Mus musculus [1]) is reported as 96.2 s, the Time (Mus musculus [2]) is reported as 101.8 s and the Time (Mus musculus [3]) is reported as 109 s. For the same molecule, the Activity (Mus musculus [4]) was “inactive” and the Activity (Mus musculus [5]) was “Non-toxic”.

`Oc1ccc(-c2nc(SCCN(C3CCCCC3)C3CCCCC3)n[nH]2)cc1` showed a Time (Mus musculus [1]) of 112.7 s, a Time (Mus musculus [2]) of 126.2 s and a Time (Mus musculus [3]) of 157.5 s. For the same molecule, the Activity (Mus musculus [4]) was “inactive” and the Activity (Mus musculus [5]) was “Non-toxic”.

`Cc1ccc(-c2nc(SCCN(C)C)n[nH]2)cc1` gave a Time (Mus musculus [1]) of 152.8 s, a Time (Mus musculus [2]) of 168.2 s and a Time (Mus musculus [3]) of 172.8 s. The Activity (Mus musculus [4]) was “inactive” and the Activity (Mus musculus [5]) was “Non-toxic”.

`Oc1ccccc1-c1nc(SCCN(C2CCCCC2)C2CCCCC2)n[nH]1` showed a Time (Mus musculus [1]) of 150 s, a Time (Mus musculus [2]) of 149.3 s and a Time (Mus musculus [3]) of 162.5 s. For the same molecule, the Activity (Mus musculus [4]) was “inactive” and the Activity (Mus musculus [5]) was “Non-toxic”.

Work on `CCN(CC)CCSc1n[nH]c(-c2ccc(Cl)cc2Cl)n1` yielded a Time (Mus musculus [1]) of 103.2 s, a Time (Mus musculus [2]) of 110 s and a Time (Mus musculus [3]) of 121.8 s. For the same molecule, the Activity (Mus musculus [4]) was “inactive” and the Activity (Mus musculus [5]) was “Non-toxic”.

`CN(C)CCSc1n[nH]c(-c2ccccc2O)n1` showed a Time (Mus musculus [1]) of 150 s, a Time (Mus musculus [2]) of 150.8 s and a Time (Mus musculus [3]) of 164.8 s. The Activity (Mus musculus [4]) was “inactive” and the Activity (Mus musculus [5]) was “Non-toxic”.

`COc1ccc(-c2nc(SCCN(C3CCCCC3)C3CCCCC3)n[nH]2)cc1` gave a Time (Mus musculus [1]) of 94.8 s, a Time (Mus musculus [2]) of 96.3 s and a Time (Mus musculus [3]) of 101.3 s. The Activity (Mus musculus [4]) was “inactive” and the Activity (Mus musculus [5]) was “Non-toxic”.

`CN(C)CCCN1c2ccccc2CCc2ccccc21` [IMIPRAMINE] gave a Time (Mus musculus [3]) of 95.8 s.

Work on `CCN(CC)CCSc1n[nH]c(-c2ccccc2)n1` yielded a Time (Mus musculus [1]) of 108.3 s, a Time (Mus musculus [2]) of 120.7 s and a Time (Mus musculus [3]) of 145.8 s. For the same molecule, the Activity (Mus musculus [4]) was “inactive” and the Activity (Mus musculus [5]) was “Non-toxic”.

With `CN(C)CCSc1n[nH]c(-c2ccc(Cl)cc2)n1` the Time (Mus musculus [1]) was 96 s, the Time (Mus musculus [2]) was 102.2 s and the Time (Mus musculus [3]) was 109.2 s. The Activity (Mus musculus [4]) was “inactive” and the Activity (Mus musculus [5]) was “Non-toxic”.

`CCN(CC)CCSc1n[nH]c(-c2ccccc2O)n1` was tested, and the Time (Mus musculus [1]) was 137.3 s, the Time (Mus musculus [2]) was 163.5 s and the Time (Mus musculus [3]) was 173.8 s. The Activity (Mus musculus [4]) was “inactive” and the Activity (Mus musculus [5]) was “Non-toxic”.
